Results: patent US5336768A, “Antibacterial cephalosporin compounds” (Hoffmann-La Roche Inc., priority 1988, dated 1994)
Where a name gives a salt, the structure may show the parent alone. Read-outs that look alike come from different tables or passages of the source.

Experiments:
Test in all cases: In vitro MIC, Agar Dilution Method
Type in all cases: cell-based
[1] = tested on: Staph. aureus 67; conditions: Staphylococcus aureus
From the text: (§1) The in vitro activity of the compounds of the present invention as measured by the Minimum Inhibitory Concentration (MIC) in micrograms/ml utilizing the Agar Dilution Method against a variety of Gram-positive and Gram-negative organisms, is as follows: […]

[2] = tested on: Ps. aeruginosa 18SH; conditions: Pseudomonas aeruginosa, read-out: In Vitro MIC
From the text: as §1

[3] = tested on: E. coli 257; conditions: Escherichia coli
From the text: as §1

[4] = tested on: Ps. aeruginosa 5712; conditions: Pseudomonas aeruginosa
From the text: as §1

[5] = tested on: Ps. aeruginosa 8780; conditions: Pseudomonas aeruginosa
From the text: as §1

[6] = tested on: Prot. vulgaris ATCC 6380; conditions: Proteus vulgaris
From the text: as §1

[7] = tested on: Staph. aureus 753
From the text: as §1

[8] = tested on: Enter. cloacae P99; conditions: Enterobacter cloacae
From the text: as §1

[9] = tested on: Prot. Vulqaris 1028 BC; conditions: read-out: In Vitro MIC
From the text: as §1

[10] = tested on: Enter. cloacae 5699; conditions: Enterobacter cloacae
From the text: as §1

[11] = tested on: Str. pneumoniae 6301; conditions: Streptococcus pneumoniae
From the text: as §1

[12] = tested on: Ps. aeruginosa ATCC 27853; conditions: Pseudomonas aeruginosa
From the text: as §1

[13] = tested on: K. pneumoniae A; conditions: Klebsiella pneumoniae, read-out: In Vitro MIC
From the text: as §1

[14] = tested on: Str. pyogenes 4; conditions: Streptococcus pyogenes
From the text: as §1

[15] = tested on: Ps. aeruginosa 765
From the text: as §1

[16] = tested on: E. coli ATCC 25922; conditions: Escherichia coli, ATCC25922
From the text: as §1

[17] = tested on: Staph. aureus ATCC 29213; conditions: Staphylococcus aureus
From the text: as §1

[18] = tested on: Prot. mirabilis 90
From the text: as §1

[19] = tested on: Str. faecalis ATCC 29212; conditions: Enterococcus faecalis, ATCC29212
From the text: as §1

[20] = tested on: Ser. marcescens SM; conditions: Serratia marcescens, read-out: In Vitro MIC
From the text: as §1

[21] = tested on: Staph. aureus Smith; conditions: Staphylococcus aureus, read-out: In Vitro MIC
From the text: as §1

[22] = tested on: Ser. marcescens 1071; conditions: Serratia marcescens
From the text: as §1

[23] = tested on: E. coli TEM-1; conditions: Escherichia coli, TEM1, read-out: In Vitro MIC
From the text: as §1

[24] = tested on: Cit. freundii BS-16; conditions: Citrobacter freundii, BS16
From the text: as §1

[25] = tested on: Staph. aureus 10598
From the text: as §1

Compound | MIC [1] [µg/mL] | MIC [3] [µg/mL] | MIC [4] [µg/mL] | MIC [5] [µg/mL] | MIC [8] [µg/mL] | MIC [10] [µg/mL] | MIC [11] [µg/mL] | MIC [14] [µg/mL] | MIC [16] [µg/mL] | MIC [19] [µg/mL] | MIC [22] [µg/mL] | MIC [23] [µg/mL] | MIC [24] [µg/mL] | other results
CCn1cc(C(=O)O)c(=O)c2cc(F)c(N3CCN(C(=O)OCC4=C(C(=O)O)N5C(=O)[C@@H](NC(=O)/C(=N\OC)c6csc(N)n6)[C@H]5SC4)CC3)cc21 [Compound A, [6R-[6α,7β(Z)]]-7-[[(2-amino-4-thiazolyl) (methoxyimino)acetyl]amino]-3-[[[[4-(3-carboxy-1-ethyl-6-fluoro-1,4-dihydro-4-oxo-7-quinolinyl) -1-piperazinyl]carbonyl]oxy]methyl]-8-oxo-5-thia-1-azabicyclo[4.2.0]oct-2-ene-2-carboxylic acid sodium salt] | 4 | 0.25 | 16 | 4 | 0.5 | 0.5 | 0.0157 | 0.0157 | 0.25 | 0.5 | 0.5 | 0.25 | 0.5 | MIC ([2]; Ps. aeruginosa 18SH, Agar Dilution Method): 4 µg/mL; MIC ([6]; ATCC6380, Prot. vulgaris ATCC 6380, Agar Dilution Method, read-out: In Vitro MIC): 0.0625 µg/mL; MIC ([7]; Staphylococcus aureus, Staph. aureus 753, Agar Dilution Method, read-out: In Vitro MIC): 4 µg/mL; MIC ([9]; Prot. Vulqaris 1028 BC, Agar Dilution Method): 0.125 µg/mL; MIC ([12]; ATCC27853, Ps. aeruginosa ATCC 27853, Agar Dilution Method, read-out: In Vitro MIC): 8 µg/mL; MIC ([13]; K. pneumoniae A, Agar Dilution Method): 0.5 µg/mL; MIC ([15]; Pseudomonas aeruginosa, Ps. aeruginosa 765, Agar Dilution Method, read-out: In Vitro MIC): 8 µg/mL; MIC ([17]; ATCC29213, Staph. aureus ATCC 29213, Agar Dilution Method, read-out: In Vitro MIC): 2 µg/mL; MIC ([18]; Proteus mirabilis, 90, read-out: In Vitro MIC): 0.25 µg/mL; MIC [20]: 0.25 µg/mL; MIC ([21]; Staph. aureus Smith, Agar Dilution Method): 1 µg/mL; MIC ([25]; Staphylococcus aureus, Staph. aureus 10598, Agar Dilution Method, read-out: In Vitro MIC): 2 µg/mL
CO/N=C(\C(=O)N[C@@H]1C(=O)N2C(C(=O)O)=C(COC(=O)N3CCN(c4cc5c(cc4F)c(=O)c(C(=O)O)cn5C4CC4)CC3)CS[C@H]12)c1csc(N)n1 [Compound B, [6R-[6α,7β(Z)]]-7-[[(2-amino-4-thiazolyl) (methoxyimino)acetyl]amino]-3-[[[[4-(3-carboxy-1-cyclopropyl-6-fluoro-1,4-dihydro-4-oxo-7-quinolinyl)-1-piperazinyl]carbonyl]oxy]methyl]-8-oxo-5-thia-1-azabicyclo[4.2.0]oct-2-ene-2-carboxylic acid sodium salt] | 2 | 0.0625 | 4 | 2 | 0.0313 | 0.125 | 0.0157 | 0.0157 | 0.0625 | 0.25 | 0.25 | 0.0625 | 0.125 | MIC ([2]; 18SH): 1 µg/mL; MIC ([6]; ATCC6380, read-out: In Vitro MIC): 0.0625 µg/mL; MIC ([7]; Staphylococcus aureus, 753, read-out: In Vitro MIC): 1 µg/mL; MIC [9]: 0.0625 µg/mL; MIC ([12]; ATCC27853, read-out: In Vitro MIC): 1 µg/mL; MIC [13]: 0.0625 µg/mL; MIC ([15]; Pseudomonas aeruginosa, 765, read-out: In Vitro MIC): 1 µg/mL; MIC ([17]; ATCC29213, read-out: In Vitro MIC): 1 µg/mL; MIC ([18]; Proteus mirabilis, Prot. mirabilis 90, Agar Dilution Method, read-out: In Vitro MIC): 0.25 µg/mL; MIC ([20]; Ser. marcescens SM, Agar Dilution Method): 0.125 µg/mL; MIC [21]: 0.5 µg/mL; MIC ([25]; Staphylococcus aureus, 10598, read-out: In Vitro MIC): 1 µg/mL
